Experimental data published in ChEMBL document CHEMBL4190322, “Structure-based development of novel triazoles and related thiazolotriazoles as anticancer agents and Cdc25A/B phosphatase inhibitors. Synthesis, in vitro biological evaluation, molecular docking and in silico ADME-T studies” (Eur J Med Chem, 2017).
The source made the active and inactive calls. No cut-off for these calls is given here.

Experiments:
Format in all cases: functional
HT-29 = assay: Growth inhibition of human HT-29 cells at 10 uM after 48 hrs by SRB assay relative to control
OVCAR-8 = assay: Growth inhibition of human OVCAR8 cells at 10 uM after 48 hrs by SRB assay relative to control
CCRF-CEM = assay: Growth inhibition of human CCRF-CEM cells at 10 uM after 48 hrs by SRB assay relative to control; details: read-out: GI
K562 = assay: Growth inhibition of human K562 cells at 10 uM after 48 hrs by SRB assay relative to control; details: K562, 48 h, read-out: GI
SR = assay: Growth inhibition of human SR cells at 10 uM after 48 hrs by SRB assay relative to control; details: read-out: GI
MOLT-4 = assay: Growth inhibition of human MOLT4 cells at 10 uM after 48 hrs by SRB assay relative to control; details: MOLT-4, 48 h, read-out: GI
RPMI-8226 = assay: Growth inhibition of human RPMI8226 cells at 10 uM after 48 hrs by SRB assay relative to control; details: for inhibition of growth at 10 µM: RPMI-8226, 48 h, read-out: GI
HL-60 = assay: Growth inhibition of human HL60 cells at 10 uM after 48 hrs by SRB assay relative to control
A549 = assay: Growth inhibition of human A549 cells at 10 uM after 48 hrs by SRB assay relative to control; details: A549, 48 h, read-out: GI
HOP-62 = assay: Growth inhibition of human HOP62 cells at 10 uM after 48 hrs by SRB assay relative to control; details: for inhibition of growth at 10 µM: HOP-62, 48 h, read-out: GI
HOP-92 = assay: Growth inhibition of human HOP92 cells at 10 uM after 48 hrs by SRB assay relative to control; details: HOP-92, 48 h, read-out: GI
NCI-H226 = assay: Growth inhibition of human NCI-H226 cells at 10 uM after 48 hrs by SRB assay relative to control; details: for inhibition of growth at 10 µM: NCI-H226, 48 h, read-out: GI
NCI-H23 = assay: Growth inhibition of human NCI-H23 cells at 10 uM after 48 hrs by SRB assay relative to control; details: NCI-H23, 48 h, read-out: GI
NCI-H322M = assay: Growth inhibition of human NCI-H322M cells at 10 uM after 48 hrs by SRB assay relative to control; details: for inhibition of growth at 10 µM: read-out: GI
NCI-H522 = assay: Growth inhibition of human NCI-H522 cells at 10 uM after 48 hrs by SRB assay relative to control; details: NCI-H522, 48 h, read-out: GI
HCT-116 = assay: Growth inhibition of human HCT116 cells at 10 uM after 48 hrs by SRB assay relative to control
KM12 = assay: Growth inhibition of human KM12 cells at 10 uM after 48 hrs by SRB assay relative to control; details: KM12, 48 h, read-out: GI
SF-268 = assay: Growth inhibition of human SF268 cells at 10 uM after 48 hrs by SRB assay relative to control; details: for inhibition of growth at 10 µM: SF-268, 48 h, read-out: GI
SNB-19 = assay: Growth inhibition of human SNB19 cells at 10 uM after 48 hrs by SRB assay relative to control; details: SNB-19, 48 h, read-out: GI
SNB-75 = assay: Growth inhibition of human SNB75 cells at 10 uM after 48 hrs by SRB assay relative to control; details: SNB-75, 48 h, read-out: GI
U-251 = assay: Growth inhibition of human U251 cells at 10 uM after 48 hrs by SRB assay relative to control; details: U-251, 48 h, read-out: GI
LOX IMVI = assay: Growth inhibition of human LOXIMVI cells at 10 uM after 48 hrs by SRB assay relative to control; details: read-out: GI
SK-MEL-2 = assay: Growth inhibition of human SK-MEL-2 cells at 10 uM after 48 hrs by SRB assay relative to control; details: for inhibition of growth at 10 µM: SK-MEL-2, 48 h, read-out: GI
SK-MEL-5 = assay: Growth inhibition of human SK-MEL-5 cells at 10 uM after 48 hrs by SRB assay relative to control; details: for inhibition of growth at 10 µM: SK-MEL-5, 48 h, read-out: GI
UACC-257 = assay: Growth inhibition of human UACC257 cells at 10 uM after 48 hrs by SRB assay relative to control
UACC-62 = assay: Growth inhibition of human UACC62 cells at 10 uM after 48 hrs by SRB assay relative to control; details: for inhibition of growth at 10 µM: UACC-62, 48 h, read-out: GI
OVCAR-3 = assay: Growth inhibition of human OVCAR3 cells at 10 uM after 48 hrs by SRB assay relative to control
OVCAR-4 = assay: Growth inhibition of human OVCAR4 cells at 10 uM after 48 hrs by SRB assay relative to control; details: for inhibition of growth at 10 µM: OVCAR-4, 48 h, read-out: GI
NCI/ADR-RES = assay: Growth inhibition of human NCI/ADR-RES cells at 10 uM after 48 hrs by SRB assay relative to control; details: read-out: GI
SK-OV-3 = assay: Growth inhibition of human SKOV3 cells at 10 uM after 48 hrs by SRB assay relative to control; details: SK-OV-3, 48 h, read-out: GI
786-0 = assay: Growth inhibition of human 786-0 cells at 10 uM after 48 hrs by SRB assay relative to control
A498 = assay: Growth inhibition of human A498 cells at 10 uM after 48 hrs by SRB assay relative to control; details: for inhibition of growth at 10 µM: A498, 48 h, read-out: GI
CAKI-1 = assay: Growth inhibition of human Caki1 cells at 10 uM after 48 hrs by SRB assay relative to control; details: CAKI-1, 48 h, read-out: GI
RXF 393 = assay: Growth inhibition of human RXF393 cells at 10 uM after 48 hrs by SRB assay relative to control
UO-31 = assay: Growth inhibition of human UO31 cells at 10 uM after 48 hrs by SRB assay relative to control; details: UO-31, 48 h, read-out: GI
PC-3 = assay: Growth inhibition of human PC3 cells at 10 uM after 48 hrs by SRB assay relative to control; details: PC-3, 48 h, read-out: GI
MCF7 = assay: Growth inhibition of human MCF7 cells at 10 uM after 48 hrs by SRB assay relative to control; details: MCF7, 48 h, read-out: GI
Hs-578T = assay: Growth inhibition of human Hs 578T cells at 10 uM after 48 hrs by SRB assay relative to control
MDA-MB-468 = assay: Growth inhibition of human MDA-MB-468 cells at 10 uM after 48 hrs by SRB assay relative to control
Malme-3M = assay: Growth inhibition of human MALME-3M cells at 10 uM after 48 hrs by SRB assay relative to control

Compound	inhibition of growth at 10 µM (CCRF-CEM) [%]	inhibition of growth at 10 µM (K562) [%]	inhibition of growth at 10 µM (SR) [%]	inhibition of growth at 10 µM (MOLT-4) [%]	growth inhibition (GI) (HL-60)	inhibition of growth at 10 µM (A549) [%]	inhibition of growth at 10 µM (HOP-92) [%]	inhibition of growth at 10 µM (NCI-H23) [%]	inhibition of growth at 10 µM (NCI-H522) [%]	inhibition of growth at 10 µM (KM12) [%]	inhibition of growth at 10 µM (SNB-19) [%]	inhibition of growth at 10 µM (SNB-75) [%]	inhibition of growth at 10 µM (U-251) [%]	inhibition of growth at 10 µM (LOX IMVI) [%]	inhibition of growth at 10 µM (NCI/ADR-RES) [%]	inhibition of growth at 10 µM (SK-OV-3) [%]	inhibition of growth at 10 µM (CAKI-1) [%]	inhibition of growth at 10 µM (UO-31) [%]	inhibition of growth at 10 µM (PC-3) [%]	inhibition of growth at 10 µM (MCF7) [%]	further results
COc1ccc(Cc2nnc3sc(SCc4ccccc4)nn23)cc1	25.1	12.4	12.9	11.6	inactive	3.43	27.6	7.22	16.8	6	10.6	11	2.8	15.8	3.11	1.1	5.66	20.6	6	5.28	growth inhibition (GI) (HT-29): inactive; growth inhibition (GI) (OVCAR-8): inactive; inhibition of growth at 10 µM (RPMI-8226): 2.01%; growth inhibition (GI) (HOP-62): inactive; inhibition of growth at 10 µM (NCI-H226): 14%; growth inhibition (GI) (NCI-H322M): inactive; inhibition of growth at 10 µM (HCT-116; HCT-116, 48 h, read-out: GI): 1.27%; inhibition of growth at 10 µM (SF-268): 2.02%; growth inhibition (GI) (SK-MEL-2): inactive; growth inhibition (GI) (SK-MEL-5): inactive; growth inhibition (GI) (UACC-257): inactive; growth inhibition (GI) (UACC-62): inactive; growth inhibition (GI) (OVCAR-3): inactive; inhibition of growth at 10 µM (OVCAR-4): 8.58%; inhibition of growth at 10 µM (786-0; 786-0, 48 h, read-out: GI): 6.46%; inhibition of growth at 10 µM (A498): 19.7%; growth inhibition (GI) (RXF 393): inactive; growth inhibition (GI) (Hs-578T): inactive; growth inhibition (GI) (MDA-MB-468): inactive; growth inhibition (GI) (Malme-3M): inactive
COc1ccc(Cc2nnc(SCC(=O)c3ccc(C)cc3)n2-c2ccccc2)cc1	5.01	7.62	7.61	9.02	inactive	17.5	14.3	7	19	4.22	4.85	8.11	4.09	2	16.6	13.9	7.83	30.2	20.7	14.6	growth inhibition (GI) (HT-29): inactive; inhibition of growth at 10 µM (OVCAR-8; OVCAR-8, 48 h, read-out: GI): 1.78%; growth inhibition (GI) (RPMI-8226): inactive; inhibition of growth at 10 µM (HOP-62): 6.7%; inhibition of growth at 10 µM (NCI-H226): 2.21%; inhibition of growth at 10 µM (NCI-H322M): 8.17%; growth inhibition (GI) (HCT-116): inactive; inhibition of growth at 10 µM (SF-268): 3.62%; inhibition of growth at 10 µM (SK-MEL-2): 23%; inhibition of growth at 10 µM (SK-MEL-5): 3.36%; inhibition of growth at 10 µM (UACC-257; UACC-257, 48 h, read-out: GI): 7.67%; inhibition of growth at 10 µM (UACC-62): 14%; inhibition of growth at 10 µM (OVCAR-3; OVCAR-3, 48 h, read-out: GI): 4.05%; inhibition of growth at 10 µM (OVCAR-4): 1.87%; growth inhibition (GI) (786-0): inactive; inhibition of growth at 10 µM (A498): 26%; growth inhibition (GI) (RXF 393): inactive; growth inhibition (GI) (Hs-578T): inactive; inhibition of growth at 10 µM (MDA-MB-468; MDA-MB-468, 48 h, read-out: GI): 19.3%; inhibition of growth at 10 µM (Malme-3M; read-out: GI): 5.45%
COc1ccc(Cc2nnc3sc(SCC(=O)Nc4ccc(C)cc4)nn23)cc1	7.47	7.25	7.23	2.19	inactive	2.5	23.8	3.12	12.2	3.51	3.61	12	6.5	16.7	3.81	4.35	11.9	13.6	11.5	5.79	inhibition of growth at 10 µM (HT-29; HT-29, 48 h, read-out: GI): 1.67%; growth inhibition (GI) (OVCAR-8): inactive; inhibition of growth at 10 µM (RPMI-8226): 1.58%; inhibition of growth at 10 µM (HOP-62): 2%; growth inhibition (GI) (NCI-H226): inactive; inhibition of growth at 10 µM (NCI-H322M): 3.14%; growth inhibition (GI) (HCT-116): inactive; growth inhibition (GI) (SF-268): inactive; inhibition of growth at 10 µM (SK-MEL-2): 14.8%; inhibition of growth at 10 µM (SK-MEL-5): 1.64%; growth inhibition (GI) (UACC-257): inactive; growth inhibition (GI) (UACC-62): inactive; growth inhibition (GI) (OVCAR-3): inactive; growth inhibition (GI) (OVCAR-4): inactive; growth inhibition (GI) (786-0): inactive; growth inhibition (GI) (A498): inactive; inhibition of growth at 10 µM (RXF 393; RXF 393, 48 h, read-out: GI): 1.65%; growth inhibition (GI) (Hs-578T): inactive; growth inhibition (GI) (MDA-MB-468): inactive; growth inhibition (GI) (Malme-3M): inactive
COc1ccc(Cc2nnc(SCC(=O)Nc3ccc(C)cc3)n2-c2ccc(C)cc2)cc1	7.21	26.4	12.8	39.5	inactive	1.85	17.5	2	13.1	8.1	3.42	1.89	2	2.4	5.55	12	1.24	31.3	32.4	3	growth inhibition (GI) (HT-29): inactive; growth inhibition (GI) (OVCAR-8): inactive; inhibition of growth at 10 µM (RPMI-8226): 10%; inhibition of growth at 10 µM (HOP-62): 1.2%; growth inhibition (GI) (NCI-H226): inactive; growth inhibition (GI) (NCI-H322M): inactive; growth inhibition (GI) (HCT-116): inactive; inhibition of growth at 10 µM (SF-268): 4.43%; inhibition of growth at 10 µM (SK-MEL-2): 6.19%; growth inhibition (GI) (SK-MEL-5): inactive; growth inhibition (GI) (UACC-257): inactive; inhibition of growth at 10 µM (UACC-62): 4.65%; growth inhibition (GI) (OVCAR-3): inactive; growth inhibition (GI) (OVCAR-4): inactive; growth inhibition (GI) (786-0): inactive; inhibition of growth at 10 µM (A498): 46.2%; growth inhibition (GI) (RXF 393): inactive; growth inhibition (GI) (Hs-578T): inactive; growth inhibition (GI) (MDA-MB-468): inactive; growth inhibition (GI) (Malme-3M): inactive
